Data as given in US20240150360A1 (THE REGENTS OF THE UNIVERSITY OF MICHIGAN, priority 2021, published 2024).
pIC50: −log10 of the molar value. Like-named read-outs stand apart in the source and are kept apart here.

How the values were obtained:
HL60 = test: Cell growth inhibition in HL60; format: cell-based; conditions: Homo sapiens
22Rv1 cells = test: Cell growth inhibition assay (CellTiter-Glo) in 22Rv1; format: cell-based, human; conditions: Homo sapiens, 22Rv1, 96 h, read-out: Cell Growth Inhibition (IC50) 22Rv1
Experimental: Biological Assays. CBP/p300 degradation activity and cell growth inhibition were evaluated in the human prostate cancer cell line 22Rv1 (ATCC© CRL-2505™) purchased from the American Type Culture Collection (ATCC), Manassas, VA, and maintained and cultured in Dulbecco's Modified Eagle's medium (DMEM) containing 10% fetal bovine serum, 1 unit/ml of penicillin and 1 μg/ml of streptomycin. Cells with 3-8 passages after purchase were used in experiments.
Cell Growth Inhibition Assay Protocol. 22RV1 cells were seeded at a concentration of 4000 cells/well in 100 μl culture medium and 2 μl of test compound (final concentration start from 10 μM and 3 times dilution) into 96 well microplates (Corning 3903). The cell cultures were incubated for 96 h at +37° C. and 5% CO2. The plate and its contents were equilibrated to room temperature for approximately 30 minutes. 100 μl of CellTiter-Glo® 2.0 Reagent equal to the volume of cell culture medium present was added in each well. The contents were mixed for 2 minutes on an orbital shaker. The plate was allowed to incubate at room temperature for 10 minutes. The luminescence was recorded. The data was analyzed by Prism GraphPad 8.

CBP = biological target: T1, CBP (Homo sapiens, UniProt Q92793); test: CBP degradation in 22Rv1 cells (5 h); format: cell-based; conditions: 22Rv1 cells, 5 h; for Dmax: 22Rv1, 5 h, read-out: CBP Degradation (22Rv1, 5 h) DCmax
T1 construct: endogenous in cells; host or cells: 22Rv1 (ATCC CRL-2505) human prostate cancer cells
T1 sequence (Q92793 whole entry): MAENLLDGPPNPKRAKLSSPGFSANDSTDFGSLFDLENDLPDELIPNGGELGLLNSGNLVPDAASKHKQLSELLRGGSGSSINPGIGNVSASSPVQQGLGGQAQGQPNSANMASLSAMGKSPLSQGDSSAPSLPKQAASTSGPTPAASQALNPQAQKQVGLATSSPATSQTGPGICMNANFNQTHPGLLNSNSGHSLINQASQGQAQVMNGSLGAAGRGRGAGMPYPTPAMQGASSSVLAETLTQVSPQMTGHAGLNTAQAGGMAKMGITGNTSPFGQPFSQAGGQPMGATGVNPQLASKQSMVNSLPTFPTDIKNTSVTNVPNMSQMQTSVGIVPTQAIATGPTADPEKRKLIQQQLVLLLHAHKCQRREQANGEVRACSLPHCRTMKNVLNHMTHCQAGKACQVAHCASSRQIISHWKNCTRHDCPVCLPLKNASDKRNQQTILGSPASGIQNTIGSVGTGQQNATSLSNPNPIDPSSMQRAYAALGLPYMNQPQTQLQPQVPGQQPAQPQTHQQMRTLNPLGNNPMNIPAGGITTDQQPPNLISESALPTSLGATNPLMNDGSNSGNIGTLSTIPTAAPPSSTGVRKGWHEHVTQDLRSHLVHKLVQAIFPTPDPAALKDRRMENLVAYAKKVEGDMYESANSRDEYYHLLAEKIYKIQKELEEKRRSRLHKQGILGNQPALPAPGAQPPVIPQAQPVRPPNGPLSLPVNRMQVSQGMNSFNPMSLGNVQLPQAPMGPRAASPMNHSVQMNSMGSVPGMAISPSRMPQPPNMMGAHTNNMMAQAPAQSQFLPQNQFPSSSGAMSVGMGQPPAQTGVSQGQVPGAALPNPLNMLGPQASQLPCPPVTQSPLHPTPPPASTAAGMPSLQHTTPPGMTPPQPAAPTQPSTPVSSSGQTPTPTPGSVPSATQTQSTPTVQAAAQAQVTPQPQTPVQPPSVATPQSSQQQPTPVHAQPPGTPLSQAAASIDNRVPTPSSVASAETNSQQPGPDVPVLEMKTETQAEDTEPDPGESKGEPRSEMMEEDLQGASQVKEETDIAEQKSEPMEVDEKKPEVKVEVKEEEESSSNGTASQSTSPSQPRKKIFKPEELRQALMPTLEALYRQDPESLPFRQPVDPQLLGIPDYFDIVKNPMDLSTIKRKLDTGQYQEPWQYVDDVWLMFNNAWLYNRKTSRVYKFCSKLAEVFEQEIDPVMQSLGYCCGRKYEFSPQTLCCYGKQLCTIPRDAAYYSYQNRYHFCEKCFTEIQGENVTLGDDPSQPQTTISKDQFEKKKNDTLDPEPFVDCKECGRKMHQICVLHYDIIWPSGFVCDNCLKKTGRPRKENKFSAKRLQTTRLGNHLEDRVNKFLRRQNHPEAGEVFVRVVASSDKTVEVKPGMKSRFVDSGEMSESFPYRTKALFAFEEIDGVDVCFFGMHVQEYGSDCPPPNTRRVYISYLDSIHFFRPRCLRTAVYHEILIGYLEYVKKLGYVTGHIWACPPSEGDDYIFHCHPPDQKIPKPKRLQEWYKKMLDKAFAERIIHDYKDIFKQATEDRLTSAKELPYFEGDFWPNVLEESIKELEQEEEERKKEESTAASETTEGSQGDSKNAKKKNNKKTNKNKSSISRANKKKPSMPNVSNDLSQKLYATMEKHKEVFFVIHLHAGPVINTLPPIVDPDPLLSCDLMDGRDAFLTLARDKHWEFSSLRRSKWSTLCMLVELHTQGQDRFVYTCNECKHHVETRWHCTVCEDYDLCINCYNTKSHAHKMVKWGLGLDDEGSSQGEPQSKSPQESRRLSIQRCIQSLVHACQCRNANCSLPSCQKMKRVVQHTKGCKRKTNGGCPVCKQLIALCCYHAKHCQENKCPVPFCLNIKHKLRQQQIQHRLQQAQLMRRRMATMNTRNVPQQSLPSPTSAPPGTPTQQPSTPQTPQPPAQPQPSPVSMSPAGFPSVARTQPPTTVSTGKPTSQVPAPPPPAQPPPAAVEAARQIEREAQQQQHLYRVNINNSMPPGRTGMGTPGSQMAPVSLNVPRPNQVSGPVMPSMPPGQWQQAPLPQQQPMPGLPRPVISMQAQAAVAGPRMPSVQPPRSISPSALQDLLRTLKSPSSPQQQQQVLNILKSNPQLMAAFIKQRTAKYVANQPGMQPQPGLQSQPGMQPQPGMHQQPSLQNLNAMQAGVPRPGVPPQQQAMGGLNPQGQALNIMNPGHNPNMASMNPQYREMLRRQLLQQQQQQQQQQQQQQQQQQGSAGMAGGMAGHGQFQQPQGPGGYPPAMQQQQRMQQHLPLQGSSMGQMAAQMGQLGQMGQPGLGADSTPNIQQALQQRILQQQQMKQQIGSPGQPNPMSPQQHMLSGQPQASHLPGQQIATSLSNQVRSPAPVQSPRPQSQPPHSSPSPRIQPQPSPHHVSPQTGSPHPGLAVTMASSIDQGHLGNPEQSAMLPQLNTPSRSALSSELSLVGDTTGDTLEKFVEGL
Source text: (§1) Biological Assays. […] Cells with 3-8 passages after purchase were used in experiments.

P300 = biological target: T2, P300 (Homo sapiens, UniProt Q09472); test: P300 degradation in 22Rv1 cells (5 h); format: cell-based; conditions: 22Rv1 cells, 5 h; for Dmax: read-out: P300 Degradation (22Rv1, 5 h) DCmax
T2 construct: endogenous in cells; host or cells: 22Rv1 (ATCC CRL-2505) human prostate cancer cells
T2 sequence (Q09472 whole entry): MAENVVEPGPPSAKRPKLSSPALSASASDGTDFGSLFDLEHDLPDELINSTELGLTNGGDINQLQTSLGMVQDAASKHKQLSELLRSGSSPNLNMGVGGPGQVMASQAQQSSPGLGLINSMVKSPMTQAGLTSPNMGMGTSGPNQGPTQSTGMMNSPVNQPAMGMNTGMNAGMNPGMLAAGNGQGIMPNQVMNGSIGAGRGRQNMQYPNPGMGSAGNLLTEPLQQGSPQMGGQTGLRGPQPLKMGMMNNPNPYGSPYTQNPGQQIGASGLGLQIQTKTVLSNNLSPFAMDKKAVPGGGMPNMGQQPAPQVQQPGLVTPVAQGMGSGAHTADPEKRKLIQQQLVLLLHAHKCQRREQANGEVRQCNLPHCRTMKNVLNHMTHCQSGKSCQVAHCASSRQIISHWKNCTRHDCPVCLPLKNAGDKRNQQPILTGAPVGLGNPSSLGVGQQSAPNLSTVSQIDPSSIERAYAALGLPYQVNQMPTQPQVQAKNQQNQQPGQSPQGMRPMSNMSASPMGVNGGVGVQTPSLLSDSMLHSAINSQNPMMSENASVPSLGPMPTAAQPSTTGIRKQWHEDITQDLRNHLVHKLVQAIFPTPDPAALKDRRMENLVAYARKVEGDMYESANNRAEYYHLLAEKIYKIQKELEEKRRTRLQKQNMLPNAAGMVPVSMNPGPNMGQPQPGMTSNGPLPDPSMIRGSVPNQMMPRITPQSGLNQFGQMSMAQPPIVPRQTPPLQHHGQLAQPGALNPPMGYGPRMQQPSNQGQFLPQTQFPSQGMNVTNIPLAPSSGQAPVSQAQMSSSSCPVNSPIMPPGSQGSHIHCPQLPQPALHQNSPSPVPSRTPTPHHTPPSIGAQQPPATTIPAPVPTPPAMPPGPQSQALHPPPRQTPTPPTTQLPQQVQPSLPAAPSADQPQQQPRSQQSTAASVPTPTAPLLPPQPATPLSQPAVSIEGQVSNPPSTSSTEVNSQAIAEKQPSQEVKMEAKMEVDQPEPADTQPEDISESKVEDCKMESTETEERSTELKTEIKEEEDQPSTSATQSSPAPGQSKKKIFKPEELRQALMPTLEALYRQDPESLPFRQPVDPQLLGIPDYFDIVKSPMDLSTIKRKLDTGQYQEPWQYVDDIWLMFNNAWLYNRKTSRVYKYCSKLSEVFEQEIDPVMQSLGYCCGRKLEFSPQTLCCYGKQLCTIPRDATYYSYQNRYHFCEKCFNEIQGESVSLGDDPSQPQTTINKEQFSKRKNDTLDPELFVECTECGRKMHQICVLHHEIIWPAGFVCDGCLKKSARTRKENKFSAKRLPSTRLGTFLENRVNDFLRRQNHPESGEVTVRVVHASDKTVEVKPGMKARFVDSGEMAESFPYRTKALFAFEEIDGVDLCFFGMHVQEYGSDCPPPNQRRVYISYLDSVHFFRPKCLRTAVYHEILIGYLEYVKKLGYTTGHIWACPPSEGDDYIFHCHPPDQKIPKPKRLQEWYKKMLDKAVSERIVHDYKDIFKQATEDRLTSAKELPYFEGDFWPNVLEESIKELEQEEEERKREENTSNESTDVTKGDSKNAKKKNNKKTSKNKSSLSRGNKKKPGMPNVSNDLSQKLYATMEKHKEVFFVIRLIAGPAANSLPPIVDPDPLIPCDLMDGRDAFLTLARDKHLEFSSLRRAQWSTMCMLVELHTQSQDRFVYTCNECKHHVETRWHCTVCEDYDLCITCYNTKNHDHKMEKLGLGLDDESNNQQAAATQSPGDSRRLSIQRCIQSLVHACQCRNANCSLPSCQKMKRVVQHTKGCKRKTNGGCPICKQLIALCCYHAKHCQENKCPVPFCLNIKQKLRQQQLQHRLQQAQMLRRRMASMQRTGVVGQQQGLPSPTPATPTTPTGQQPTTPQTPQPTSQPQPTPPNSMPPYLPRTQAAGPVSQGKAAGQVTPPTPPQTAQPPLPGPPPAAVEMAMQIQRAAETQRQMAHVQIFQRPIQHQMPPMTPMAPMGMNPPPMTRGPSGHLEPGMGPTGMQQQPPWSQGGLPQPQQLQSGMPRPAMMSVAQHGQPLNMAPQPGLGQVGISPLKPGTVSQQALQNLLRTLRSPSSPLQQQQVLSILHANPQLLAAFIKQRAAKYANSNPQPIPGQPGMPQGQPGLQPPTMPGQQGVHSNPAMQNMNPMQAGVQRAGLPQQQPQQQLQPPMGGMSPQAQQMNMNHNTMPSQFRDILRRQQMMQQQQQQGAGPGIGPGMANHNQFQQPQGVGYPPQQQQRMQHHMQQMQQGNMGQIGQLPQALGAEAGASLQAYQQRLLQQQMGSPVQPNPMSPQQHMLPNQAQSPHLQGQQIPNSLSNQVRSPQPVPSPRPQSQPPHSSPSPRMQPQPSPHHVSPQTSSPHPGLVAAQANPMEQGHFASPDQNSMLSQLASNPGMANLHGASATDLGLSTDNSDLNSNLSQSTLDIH
Source text: as §1

[1] = HL-60, read-out: Cell Growth Inhibition (IC50) HL60

Dmax (CBP) [%]	DC50 (CBP) [nM]	DC50 (P300) [nM]	Dmax (P300) [%]	Structure (SMILES)	pIC50 (HL60; [1])	pIC50 (22Rv1 cells)	also measured
> 70	< 10	–	–	CC(=O)N1CCc2c(c(N3CCCc4cc(-c5cnn(C)c5)c(C(F)F)cc43)nn2C2CCN(C(=O)CCCN3CCc4cc5c(cc4C3)C(=O)N(C3CCC(=O)NC3=O)C5=O)CC2)C1 (stereo not drawn) [CP-004, 6-(4-(4-(5-acetyl-3-(7-(difluoromethyl)-6-(1-methyl-1H-pyrazol-4-yl)-3,4-dihydroquinolin-1(2H)-yl)-4,5,6,7-tetrahydro-1H-pyrazolo[4,3-c]pyridin-1-yl)piperidin-1-yl)-4-oxobutyl)-2-(2,6-dioxopiperidin-3-yl)-5,6,7,8-tetrahydro-1H-pyrrolo[3,4-g]isoquinoline-1,3(2H)-dione]	–	–	pIC50 (HL60; HL-60, HL60 cells, read-out: Cell Growth Inhibition (IC50) HL60): > 6.00; pIC50 (22Rv1 cells; 22Rv1 cells, 96 h incubation): > 6.00
–	–	–	–	CC(=O)N1CCc2c(c(N3CCCc4cc(-c5cnn(C)c5)c(C(F)F)cc43)nn2C2CCN(C(=O)CN3Cc4cc5c(cc4C3)C(=O)N(C3CCC(=O)NC3=O)C5=O)CC2)C1 (stereo not drawn) [CP-005, 6-(2-(4-(5-acetyl-3-(7-(difluoromethyl)-6-(1-methyl-1H-pyrazol-4-yl)-3,4-dihydroquinolin-1(2H)-yl)-4,5,6,7-tetrahydro-1H-pyrazolo[4,3-c]pyridin-1-yl)piperidin-1-yl)-2-oxoethyl)-2-(2,6-dioxopiperidin-3-yl)-6,7-dihydropyrrolo[3,4-f]isoindole-1,3(2H,5H)-dione]	> 7.00	> 7.00	–
–	–	–	–	CC(=O)N1CCc2c(c(N3CCCc4cc(-c5cnn(C)c5)c(C(F)F)cc43)nn2C[C@H]2CC[C@H](N3Cc4cc5c(cc4C3)C(=O)N(C3CCC(=O)NC3=O)C5=O)CC2)C1 (relative stereo) [CP-039, 6-(-4-((5-acetyl-3-(7-(difluoromethyl)-6-(1-methyl-1H-pyrazol-4-yl)-3,4-dihydroquinolin-1(2H)-yl)-4,5,6,7-tetrahydro-1H-pyrazolo[4,3-c]pyridin-1-yl)methyl)cyclohexyl)-2-(2,6-dioxopiperidin-3-yl)-6,7-dihydropyrrolo[3,4-f]isoindole-1,3(2H,5H)-dione]	> 7.00	> 6.00	–
–	–	–	–	CC(=O)N1CCc2c(c(N3CCCc4cc(-c5cnn(C)c5)c(C(F)F)cc43)nn2C[C@H]2CC[C@H](CN3Cc4cc5c(cc4C3)C(=O)N(C3CCC(=O)NC3=O)C5=O)CC2)C1 (stereo partly drawn) [CP-043, 6-((4-((5-acetyl-3-(7-(difluoromethyl)-6-(1-methyl-1H-pyrazol-4-yl)-3,4-dihydroquinolin-1(2H)-yl)-4,5,6,7-tetrahydro-1H-pyrazolo[4,3-c]pyridin-1-yl)methyl)cyclohexyl)methyl)-2-(2,6-dioxopiperidin-3-yl)-6,7-dihydropyrrolo[3,4-f]isoindole-1,3(2H,5H)-dione]	> 6.00	> 5.00	–
< 50	> 1000	> 1000	< 50	CC(=O)N1CCc2c(c(N3CCCc4cc(-c5cnn(C)c5)c(C(F)F)cc43)nn2C2CCC(N3CCc4ccc5c(c4C3)C(=O)N(C3CCC(=O)NC3=O)C5=O)CC2)C1 (stereo not drawn) [CP-087, 8-((1r,4r)-4-(5-acetyl-3-(7-(difluoromethyl)-6-(1-methyl-1H-pyrazol-4-yl)-3,4-dihydroquinolin-1(2H)-yl)-4,5,6,7-tetrahydro-1H-pyrazolo[4,3-c]pyridin-1-yl)cyclohexyl)-2-(2,6-dioxopiperidin-3-yl)-6,7,8,9-tetrahydro-1H-pyrrolo[3,4-h]isoquinoline-1,3(2H)-dione]	–	–	–
–	–	–	–	CC(=O)N1CCc2c(c(N3CCCc4cc(-c5cnn(C)c5)c(C(F)F)cc43)nn2C2CCC(CCN3Cc4cc5c(cc4C3)C(=O)N(C3CCC(=O)NC3=O)C5=O)CC2)C1 (stereo not drawn) [CP-044, 6-(2-(4-(5-acetyl-3-(7-(difluoromethyl)-6-(1-methyl-1H-pyrazol-4-yl)-3,4-dihydroquinolin-1(2H)-yl)-4,5,6,7-tetrahydro-1H-pyrazolo[4,3-c]pyridin-1-yl)cyclohexyl)ethyl)-2-(2,6-dioxopiperidin-3-yl)-6,7-dihydropyrrolo[3,4-f]isoindole-1,3(2H,5H)-dione]	> 7.00	> 7.00	–
> 70	< 10	< 10	> 70	CC(=O)N1CCc2c(c(N3CCCc4cc(-c5cnn(C)c5)c(C(F)F)cc43)nn2C2CCC(N3CC4(Cc5cc6c(cc5C4)C(=O)N(C4CCC(=O)NC4=O)C6=O)C3)CC2)C1 (stereo not drawn) [CP-086, 1-(4-(5-acetyl-3-(7-(difluoromethyl)-6-(1-methyl-1H-pyrazol-4-yl)-3,4-dihydroquinolin-1(2H)-yl)-4,5,6,7-tetrahydro-1H-pyrazolo[4,3-c]pyridin-1-yl)cyclohexyl)-2′-(2,6-dioxopiperidin-3-yl)-5′,7′-dihydro-1′H-spiro[azetidine-3,6′-cyclopenta[f]isoindole]-1′,3′(2′H)-dione]	–	–	–
–	–	–	–	CC(=O)N1CCc2c(c(N3CCCc4cc(-c5cnn(C)c5)c(C(F)F)cc43)nn2[C@H]2CC[C@H](CN3Cc4cc5c(cc4C3)C(=O)N(C3CCC(=O)NC3=O)C5=O)CC2)C1 (stereo partly drawn) [CP-047, 6-((4-(5-acetyl-3-(7-(difluoromethyl)-6-(1-methyl-1H-pyrazol-4-yl)-3,4-dihydroquinolin-1(2H)-yl)-4,5,6,7-tetrahydro-1H-pyrazolo[4,3-c]pyridin-1-yl)cyclohexyl)methyl)-2-(2,6-dioxopiperidin-3-yl)-6,7-dihydropyrrolo[3,4-f]isoindole-1,3(2H,5H)-dione]	> 7.00	> 7.00	–
–	–	–	–	CC(=O)N1CCc2c(c(N3CCCc4cc(-c5cnn(C)c5)c(C(F)F)cc43)nn2C[C@H]2CC[C@@H](N3Cc4cc5c(cc4C3)C(=O)N(C3CCC(=O)NC3=O)C5=O)CC2)C1 (stereo partly drawn) [CP-040, 6-(4-((5-acetyl-3-(7-(difluoromethyl)-6-(1-methyl-1H-pyrazol-4-yl)-3,4-dihydroquinolin-1(2H)-yl)-4,5,6,7-tetrahydro-1H-pyrazolo[4,3-c]pyridin-1-yl)methyl)cyclohexyl)-2-(2,6-dioxopiperidin-3-yl)-6,7-dihydropyrrolo[3,4-f]isoindole-1,3(2H,5H)-dione]	> 7.00	> 6.00	–
< 50	> 1000	> 1000	< 50	CC(=O)N1CCc2c(c(N3CCCc4cc(-c5cnn(C)c5)c(C(F)F)cc43)nn2[C@H]2CC[C@H](CN3CCc4ccc5c(c4C3)C(=O)N(C3CCC(=O)NC3=O)C5=O)CC2)C1 (stereo partly drawn) [CP-089, 8-(((1r,4r)-4-(5-acetyl-3-(7-(difluoromethyl)-6-(1-methyl-1H-pyrazol-4-yl)-3,4-dihydroquinolin-1(2H)-yl)-4,5,6,7-tetrahydro-1H-pyrazolo[4,3-c]pyridin-1-yl)cyclohexyl)methyl)-2-(2,6-dioxopiperidin-3-yl)-6,7,8,9-tetrahydro-1H-pyrrolo[3,4-h]isoquinoline-1,3(2H)-dione]	–	–	–
–	–	–	–	CC(=O)N1CCc2c(c(N3CCCc4cc(-c5cnn(C)c5)c(C(F)F)cc43)nn2[C@H]2CC[C@@H](CN3Cc4cc5c(cc4C3)C(=O)N(C3CCC(=O)NC3=O)C5=O)CC2)C1 (relative stereo) [CP-046, 6-((4-(5-acetyl-3-(7-(difluoromethyl)-6-(1-methyl-1H-pyrazol-4-yl)-3,4-dihydroquinolin-1(2H)-yl)-4,5,6,7-tetrahydro-1H-pyrazolo[4,3-c]pyridin-1-yl)cyclohexyl)methyl)-2-(2,6-dioxopiperidin-3-yl)-6,7-dihydropyrrolo[3,4-f]isoindole-1,3(2H,5H)-dione]	> 7.00	> 7.00	–
> 70	< 10	< 10	> 70	CC(=O)N1CCc2c(c(N3CCCc4cc(-c5cnn(C)c5)c(C(F)F)cc43)nn2[C@H]2CC[C@H](CN3CC4(Cc5cc6c(cc5C4)C(=O)N(C4CCC(=O)NC4=O)C6=O)C3)CC2)C1 (stereo partly drawn) [CP-088, 1-(((1r,4r)-4-(5-acetyl-3-(7-(difluoromethyl)-6-(1-methyl-1H-pyrazol-4-yl)-3,4-dihydroquinolin-1(2H)-yl)-4,5,6,7-tetrahydro-1H-pyrazolo[4,3-c]pyridin-1-yl)cyclohexyl)methyl)-2′-(2,6-dioxopiperidin-3-yl)-5′,7′-dihydro-1′H-spiro[azetidine-3,6′-cyclopenta[f]isoindole]-1′,3′(2′H)-dione]	–	–	–
–	–	–	–	CC(=O)N1CCc2c(c(N3CCCc4cc(-c5cnn(C)c5)c(C(F)F)cc43)nn2C2CCC(N3Cc4cc5c(cc4C3)C(=O)N(C3CCC(=O)NC3=O)C5=O)CC2)C1 (stereo not drawn) [CP-037, 6-(4-(5-acetyl-3-(7-(difluoromethyl)-6-(1-methyl-1H-pyrazol-4-yl)-3,4-dihydroquinolin-1(2H)-yl)-4,5,6,7-tetrahydro-1H-pyrazolo[4,3-c]pyridin-1-yl)cyclohexyl)-2-(2,6-dioxopiperidin-3-yl)-6,7-dihydropyrrolo[3,4-f]isoindole-1,3(2H,5H)-dione]	> 7.00	> 7.00	–
